Values quoted from earlier work, collected in US20210220430A1, “USE OF NOD2 AGONIST FOR THE TREATMENT, PROPHYLAXIS AND/OR DELAY OF THE ONSET OF MULTIPLE SCLEROSIS AND ALZHEIMER?S DISEASE” (UNIVERSITE LAVAL, priority 2018, published 2021).

Target: NOD2 (Homo sapiens, UniProt Q9HC29)
Settings: compared with classical N-acetyl MDP

NOD2, sequence (Q9HC29 whole entry, species assumed): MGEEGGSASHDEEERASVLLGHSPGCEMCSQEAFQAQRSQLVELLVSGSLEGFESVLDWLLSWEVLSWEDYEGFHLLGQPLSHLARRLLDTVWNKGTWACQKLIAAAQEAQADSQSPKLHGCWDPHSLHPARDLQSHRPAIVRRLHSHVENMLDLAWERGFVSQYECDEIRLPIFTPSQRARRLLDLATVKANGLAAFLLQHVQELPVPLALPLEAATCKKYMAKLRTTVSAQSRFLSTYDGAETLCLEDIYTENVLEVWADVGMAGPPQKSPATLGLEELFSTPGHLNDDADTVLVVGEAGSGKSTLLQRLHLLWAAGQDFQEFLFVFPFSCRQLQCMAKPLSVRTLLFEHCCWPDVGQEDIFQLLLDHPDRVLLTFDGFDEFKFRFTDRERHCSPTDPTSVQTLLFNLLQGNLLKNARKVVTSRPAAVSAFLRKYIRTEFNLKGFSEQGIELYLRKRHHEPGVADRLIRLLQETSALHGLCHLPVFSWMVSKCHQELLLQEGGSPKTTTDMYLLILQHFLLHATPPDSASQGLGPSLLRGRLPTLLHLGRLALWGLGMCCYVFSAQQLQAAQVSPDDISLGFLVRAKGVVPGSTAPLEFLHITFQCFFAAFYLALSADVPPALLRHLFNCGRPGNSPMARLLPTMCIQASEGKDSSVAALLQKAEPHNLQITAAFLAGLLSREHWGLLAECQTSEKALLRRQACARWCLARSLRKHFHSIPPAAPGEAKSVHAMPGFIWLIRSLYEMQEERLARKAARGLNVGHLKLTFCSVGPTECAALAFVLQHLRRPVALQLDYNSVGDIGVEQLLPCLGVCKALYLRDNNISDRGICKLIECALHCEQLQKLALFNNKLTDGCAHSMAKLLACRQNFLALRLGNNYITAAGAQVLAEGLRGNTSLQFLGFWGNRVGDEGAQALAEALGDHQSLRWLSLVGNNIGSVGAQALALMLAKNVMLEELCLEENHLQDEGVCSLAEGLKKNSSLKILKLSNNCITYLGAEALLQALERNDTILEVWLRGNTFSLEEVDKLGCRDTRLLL

C[C@@H](NC(=O)[C@@H](C)OC1C(NC(=O)CO)[C@@H](O)OC(CO)[C@H]1O)C(=O)NC(CCC(=O)O)C(N)=O (stereo partly shown) [N-glycolyl MDP]
NOD2 agonist potency at stimulating inflammatory genes: more potent
